These results are taken from patent US20220324835A1 (Nurix Therapeutics, Inc., priority 2018, published 2022).

One test deals with Cbl-b (residues 36-427) (Homo sapiens, UniProt Q13191). Put plainly: Cbl-b binding assay (SPR, Biacore T200). Conditions: 20° C., 1:1 binding model. Summed up:
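NeutrAvidin capture chip, 20° C; 50 s injections at 50 μl/min, 90-180 s dissociation; 0.3 M NaCl regeneration. Asterisked column: 50 mM NaCl buffer and 30 nM Src kinase in place of 100 mM NaCl and 60 nM Src kinase. 1:1 fit.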

Test [1] concerns T-cell. Put plainly: IL-2 secretion from T-cells co-stimulated with anti-CD3 and anti-CD28 antibody (Biological Example 2). It counts as cell-based, human. As to conditions: Homo sapiens, T-cell, fold change over baseline, primary human total T-cells, read-out: IL-2 secretion Anti-CD3/Anti-CD28 stimulation; for fold induction at 0.3 µM: 0.3 μM Cbl-b inhibitor; for fold induction at 1 µM: 1 μM Cbl-b inhibitor; for fold induction at 4 µM: 4 μM Cbl-b inhibitor. Summed up: (§1)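 Values are fold-change over baseline: readings (IL-2 release, CD25 staining) from inhibitor-treated T-cells divided against untreated cells […]. No detailed procedure stated.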

In test [2] the target is T1, Cbl-b (Homo sapiens, UniProt Q13191). Kind of test: Cbl-b inhibition assay (Cbl-b activity assay, FRET, Biological Example 1; 100 mM NaCl, 60 nM Src kinase). Format: biochemical. Conditions: upper bound stated in text lists; read-out: IC50 values in the Cbl-b inhibition assay of Biological Example 1. Summed up:
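Inhibition is read as loss of FRET signal. The signal arises when Src-phosphorylated, N-terminal biotinylated Avi-Cbl-b (captured by streptavidin-terbium) binds UbcH5B carrying covalently linked Bodipy-Fluorescein-tagged ubiquitin.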

For test [3], the target named is T1, Cbl-b. Kind of test: Cbl-b activity assay (Cbl-b inhibition assay), TR-FRET of Cbl-b interaction with UbcH5B-Ub. It counts as biochemical. Conditions: assay buffer with 100 mM NaCl, 60 nM Src kinase; read-out: Cbl-b activity IC50. In outline:
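Compound-treated Cbl-b was incubated 1.5 h with Src kinase (60 nM final; 30 nM for asterisked values, which also used 50 mM instead of 100 mM NaCl), 1 mM ATP and 5 mM MgCl2. Binding to fluorescent Ub-loaded UbcH5B (C85K mutant) was then read by TR-FRET after 1 h more.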

The test system of test [4] is T-cell. Kind of test: CD25 cell surface staining on T-cells co-stimulated with anti-CD3 and anti-CD28 antibody (Biological Example 2). Format: cell-based, human. As to conditions: Homo sapiens, T-cell, fold change over baseline, primary human total T-cells, read-out: CD25 staining Anti-CD3/Anti-CD28 stimulation; for fold induction at 0.3 µM: 0.3 μM Cbl-b inhibitor; for fold induction at 1 µM: 1 μM Cbl-b inhibitor; for fold induction at 4 µM: 4 μM Cbl-b inhibitor. Summed up: as §1

Cbl-b (residues 36-427), sequence (Q13191 36-427): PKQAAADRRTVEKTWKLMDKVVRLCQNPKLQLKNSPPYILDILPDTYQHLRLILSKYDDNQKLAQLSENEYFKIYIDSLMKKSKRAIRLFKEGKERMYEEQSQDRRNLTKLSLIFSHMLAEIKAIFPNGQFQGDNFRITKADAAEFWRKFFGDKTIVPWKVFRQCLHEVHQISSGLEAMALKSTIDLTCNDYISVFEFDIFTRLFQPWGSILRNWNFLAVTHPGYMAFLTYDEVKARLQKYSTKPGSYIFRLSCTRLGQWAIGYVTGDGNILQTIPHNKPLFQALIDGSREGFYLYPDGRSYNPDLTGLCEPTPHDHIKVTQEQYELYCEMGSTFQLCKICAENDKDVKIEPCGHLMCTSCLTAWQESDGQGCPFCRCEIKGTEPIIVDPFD
T1 sequence (Q13191 36-427): as above

At Cbl-b (residues 36-427), `C[C@H](Cc1nncn1C)c1cccc(NC(=O)c2cc(C(=O)N3C[C@@H](O)[C@H](F)C3)ccn2)c1` [Compound 240, 4-((3R,4R)-3-fluoro-4-hydroxypyrrolidine-1-carbonyl)-N-(3-((K)-1-(4-methyl-4H-1,2,4-triazol-3-yl)propan-2-yl)phenyl)picolinamide] registered a Kd of 100 to 300 nM. In addition, in the test with T-cell [1], the fold induction at 0.3 µM was < 1, the fold induction at 1 µM lay in the range of 1.01 to 2.5 and the fold induction at 4 µM was in the range of 2.51 to 5. For the same compound, at Cbl-b [2], the concentration for half-maximal inhibition (IC50) is ≤ 500 nM. For the same compound, the IC50 at Cbl-b [3] was 100 to 300 nM. In the test on T-cell [4], the fold induction at 0.3 µM is < 1, the fold induction at 1 µM fell in the range of 1.01 to 1.3 and the fold induction at 4 µM fell in the range of 1.31 to 1.5.

For the compound `C[C@H](Cc1nncn1C)c1cccc(NC(=O)c2cc(C(=O)N3CC(O)C(F)(F)C3)ccn2)c1` (stereo partly drawn) [Compound 243, 4-(3,3-difluoro-4-hydroxypyrrolidine-1-carbonyl)-N-[3-[(2R)-1-(4-methyl-4H-1,2,4-triazol-3-yl)propan-2-yl]phenyl]pyridine-2-carboxamide], the equilibrium dissociation constant (Kd) at Cbl-b (residues 36-427) was > 10000 nM. In the test on T-cell [1], the fold induction at 0.3 µM is < 1, the fold induction at 1 µM was < 1 and the fold induction at 4 µM lay in the range of 2.51 to 5. The IC50 on Cbl-b [2] is ≤ 500 nM. In addition, the IC50 at Cbl-b [3] was in the range of 301 to 1000 nM. In the test with T-cell [4], the fold induction at 0.3 µM was < 1, the fold induction at 1 µM is < 1 and the fold induction at 4 µM was in the range of 1.31 to 1.5.

At Cbl-b (residues 36-427), `CCn1cnnc1C[C@@H](C)c1cccc(NC(=O)c2cc(C(=O)N3C[C@@H](O)C[C@H]3C)ccn2)c1` [Compound 251, N-(3-((R)-1-(4-ethyl-4H-1,2,4-triazol-3-yl)propan-2-yl)phenyl)-4-((2R,4S)-4-hydroxy-2-methylpyrrolidine-1-carbonyl)picolinamide] yielded a Kd of 1000 to 3000 nM. Also, in the test with T-cell [1], the fold induction at 0.3 µM is < 1, the fold induction at 1 µM is < 1 and the fold induction at 4 µM lay in the range of 1.01 to 2.5. Besides, the IC50 on Cbl-b [2] is ≤ 1000 nM. Besides, on Cbl-b [3], the 50% inhibitory concentration (IC50) lay in the range of 301 to 1000 nM. In the test on T-cell [4], the fold induction at 0.3 µM lay in the range of 1.01 to 1.3, the fold induction at 1 µM is 1.01 to 1.3 and the fold induction at 4 µM lay within 1.01 to 1.3.

Consider `C[C@H](Cc1nncn1C)c1cccc(N2Cc3c(Br)cccc3C2=O)c1` [Compound 256, (R)-4-bromo-2-(3-(1-(4-methyl-4H-1,2,4-triazol-3-yl)propan-2-yl)phenyl)isoindolin-1-one], for which, at Cbl-b (residues 36-427), the Kd lay in the range of 100 to 300 nM. In the test with T-cell [1], the fold induction at 0.3 µM fell in the range of 2.51 to 5, the fold induction at 1 µM is 5 to 7.5 and the fold induction at 4 µM was > 7.5. For the same compound, the IC50 at Cbl-b [2] was ≤ 500 nM. Moreover, the IC50 on Cbl-b [3] was in the range of 100 to 300 nM. Besides, in the test with T-cell [4], the fold induction at 0.3 µM was 1.01 to 1.3, the fold induction at 1 µM lay in the range of 1.31 to 1.5 and the fold induction at 4 µM fell in the range of 1.51 to 1.75.

As for `C[C@H](Cc1nncn1C)c1cccc(N2Cc3c(ccnc3C3CC3)C2=O)c1` [Compound 257, 4-cyclopropyl-2-[3-[(1R)-1-methyl-2-(4-methyl-1,2,4-triazol-3-yl)ethyl]phenyl]-3H-pyrrolo[3,4-c]pyridin-1-one], the dissociation constant Kd at Cbl-b (residues 36-427) is 301 to 1000 nM. Further, in the test with T-cell [1], the fold induction at 0.3 µM was 1.01 to 2.5, the fold induction at 1 µM lay in the range of 1.01 to 2.5 and the fold induction at 4 µM was in the range of 1.01 to 2.5. Besides, the IC50 at Cbl-b [2] was ≤ 500 nM. Further, the concentration for half-maximal inhibition (IC50) on Cbl-b [3] was in the range of 100 to 300 nM. In addition, in the test on T-cell [4], the fold induction at 0.3 µM was 1.01 to 1.3, the fold induction at 1 µM lay within 1.01 to 1.3 and the fold induction at 4 µM was in the range of 1.31 to 1.5.

At Cbl-b (residues 36-427), `C[C@H](Cc1nncn1C)c1cccc(N2Cc3c(ccnc3C3CCC3)C2=O)c1` [Compound 258, (R)-4-cyclobutyl-2-(3-(1-(4-methyl-4H-1,2,4-triazol-3-yl)propan-2-yl)phenyl)-2,3-dihydropyrrolo[3,4-c]pyridin-1-one] came in with a Kd of 3000 to 10000 nM. In the test on T-cell [1], the fold induction at 0.3 µM is 1.01 to 2.5, the fold induction at 1 µM was in the range of 2.51 to 5 and the fold induction at 4 µM lay in the range of 5 to 7.5. The IC50 at Cbl-b [2] is ≤ 500 nM. Further, the IC50 on Cbl-b [3] lay within 100 to 300 nM. Moreover, in the test with T-cell [4], the fold induction at 0.3 µM is < 1, the fold induction at 1 µM lay in the range of 1.01 to 1.3 and the fold induction at 4 µM was in the range of 1.01 to 1.3.

The compound `C[C@H](Cc1nnc[nH]1)c1cccc(N2Cc3c(cccc3C(F)(F)F)C2=O)c1` [Compound 262, (R)-2-(3-(1-(4H-1,2,4-triazol-3-yl)propan-2-yl)phenyl)-4-(trifluoromethyl)isoindolin-1-one] gave an equilibrium dissociation constant (Kd) on Cbl-b (residues 36-427) of 301 to 1000 nM. Further, in the test with T-cell [1], the fold induction at 0.3 µM is < 1, the fold induction at 1 µM was < 1 and the fold induction at 4 µM lay in the range of 1.01 to 2.5. The IC50 on Cbl-b [2] is ≤ 500 nM. Further, on Cbl-b [3], the IC50 was 301 to 1000 nM. In the test on T-cell [4], the fold induction at 0.3 µM fell in the range of 1.01 to 1.3, the fold induction at 1 µM fell in the range of 1.31 to 1.5 and the fold induction at 4 µM fell in the range of 1.31 to 1.5.

Compound `C[C@H](Cc1nncn1C1CC1)c1cccc(N2Cc3c(cccc3C(F)(F)F)C2=O)c1` [Compound 265, (R)-2-(3-(1-(4-cyclopropyl-4H-1,2,4-triazol-3-yl)propan-2-yl)phenyl)-4-(trifluoromethyl)isoindolin-1-one] registered a Kd at Cbl-b (residues 36-427) of 3000 to 10000 nM. In addition, in the test with T-cell [1], the fold induction at 0.3 µM is < 1, the fold induction at 1 µM lay in the range of 1.01 to 2.5 and the fold induction at 4 µM lay within 1.01 to 2.5. At Cbl-b [2], the IC50 is ≤ 1000 nM. For the same compound, the concentration for half-maximal inhibition (IC50) on Cbl-b [3] lay within 301 to 1000 nM. In the test on T-cell [4], the fold induction at 0.3 µM lay in the range of 1.01 to 1.3, the fold induction at 1 µM lay in the range of 1.01 to 1.3 and the fold induction at 4 µM fell in the range of 1.01 to 1.3.

As to `Cc1[nH]cnc1CC(C)c1cccc(N2Cc3c(cccc3C(F)(F)F)C2=O)c1` (stereo not drawn) [Compound 272, 2-[3-[1-(5-methyl-1H-imidazol-4-yl)propan-2-yl]phenyl]-4-(trifluoromethyl)isoindolin-1-one], the equilibrium dissociation constant (Kd) on Cbl-b (residues 36-427) was in the range of 3000 to 10000 nM. In addition, in the test with T-cell [1], the fold induction at 0.3 µM is < 1, the fold induction at 1 µM is < 1 and the fold induction at 4 µM was < 1. For the same compound, the concentration for half-maximal inhibition (IC50) at Cbl-b [2] is ≤ 500 nM. Further, the IC50 at Cbl-b [3] fell in the range of 301 to 1000 nM. In the test with T-cell [4], the fold induction at 0.3 µM was < 1, the fold induction at 1 µM is < 1 and the fold induction at 4 µM fell in the range of 1.01 to 1.3.

Compound `C[C@H](Cc1nncn1C)c1cc(F)cc(N2Cc3c(cccc3C(F)(F)F)C2=O)c1` [Compound 281a, 2-[3-Fluoro-5-[(1R)-1-methyl-2-(4-methyl-1,2,4-triazol-3-yl)ethyl]phenyl]-4-(trifluoromethyl)isoindolin-1-one] displayed a Kd at Cbl-b (residues 36-427) of 100 to 300 nM. Also, in the test on T-cell [1], the fold induction at 0.3 µM lay within 1.01 to 2.5, the fold induction at 1 µM was 1.01 to 2.5 and the fold induction at 4 µM was 2.51 to 5. Also, on Cbl-b [2], the IC50 was ≤ 500 nM. Moreover, the IC50 on Cbl-b [3] is 100 to 300 nM. For the same compound, in the test on T-cell [4], the fold induction at 0.3 µM is 1.01 to 1.3, the fold induction at 1 µM lay in the range of 1.01 to 1.3 and the fold induction at 4 µM lay within 1.31 to 1.5.

In the case of `Cn1cnnc1[C@@H]1C[C@@H]1c1cccc(N2Cc3c(cccc3C(F)(F)F)C2=O)c1` [Compound 282, 2-(3-((1S,2R)-2-(4-methyl-4H-1,2,4-triazol-3-yl)cyclopropyl)phenyl)-4-(trifluoromethyl)isoindolin-1-one], the Kd at Cbl-b (residues 36-427) lay in the range of 301 to 1000 nM. Further, in the test on T-cell [1], the fold induction at 0.3 µM was < 1, the fold induction at 1 µM fell in the range of 1.01 to 2.5 and the fold induction at 4 µM fell in the range of 2.51 to 5. For the same compound, at Cbl-b [2], the IC50 was ≤ 500 nM. The IC50 at Cbl-b [3] is 301 to 1000 nM. Besides, in the test with T-cell [4], the fold induction at 0.3 µM is > 1.76, the fold induction at 1 µM was > 1.76 and the fold induction at 4 µM was > 1.76.

Compound `Cn1cnnc1[C@@H]1CC[C@@H]1c1cccc(N2Cc3c(cccc3C(F)(F)F)C2=O)c1` [Compound 283b, 2-(3-((1S,2R)-2-(4-methyl-4H-1,2,4-triazol-3-yl)cyclobutyl)phenyl)-4-(trifluoromethyl)isoindolin-1-one] displayed a Kd on Cbl-b (residues 36-427) of 301 to 1000 nM. Further, in the test with T-cell [1], the fold induction at 0.3 µM is 5 to 7.5, the fold induction at 1 µM is > 7.5 and the fold induction at 4 µM was > 7.5. Besides, the concentration for half-maximal inhibition (IC50) on Cbl-b [2] is ≤ 500 nM. For the same compound, the IC50 on Cbl-b [3] fell in the range of 301 to 1000 nM. Besides, in the test with T-cell [4], the fold induction at 0.3 µM was in the range of 1.01 to 1.3, the fold induction at 1 µM fell in the range of 1.01 to 1.3 and the fold induction at 4 µM fell in the range of 1.01 to 1.3.
